Data as given in patent US20240366555A1, “SELECTIVE MTORC2 INHIBITOR AND USES THEREOF” (ALIAD BIOPHARMA, priority 2021, published 2024).

Legend:
[1] = target: T1, mTORC2 located in late endosome of dendritic spines (Rattus norvegicus, UniProt P42346); assay: LocaTOR2 assay-immunofluorescent staining in primary cultured cerebral neurons (mGluR-dependent mTORC2 activation); format: cell-based; conditions: neurons pretreated with norathyriol; FIG. 11b
T1 construct: endogenous in cells; host or cells: primary cultured cerebral neurons from SD-rat E16 embryos, transduced by lentivirus only with mCherry-FRB-AKT2 and Rab7-FKBP
Excerpt: By combining Loca-TOR2 assay and immunofluorescence staining, changes in mTORC2 activity located in the late endosome during the induction process of long term depression (LTD) occurring in dendritic spines of primarily cultured cerebral neurons were investigated, and the inhibitory effect of norathyriol on these changes was investigated.
Specifically, mCherry-FRB-AKT2 and Rab7-FKBP were introduced using a lentiviral vector on the primarily cultured cerebral neuron on the DIV5 day, and AP21967 was treated on the DIV17 day to induce binding of FRB and FKBP, and thereby, mCherry-FRB-AKT2 was located in the late endosome. After that, DHPG, which is an mGluR agonist inducing long-term depression, was treated. […] In addition, by measuring Ser473 phosphorylation staining of mCherry-FRB-AKT2 overlapped with PSD-95 staining, which is a protein located in dendritic spines, by immunofluorescent staining, changes in mTORC2 activity located in the late endosome in the dendritic spines can be investigated. After staining using a phospho-Ser473 AKT antibody by immunofluorescent staining, the degree of AKT Ser473 phosphorylation was quantified by counting the number of each fluorescent puncta larger than 0.4 μm or more in size in the dendrites (green). In addition, the dendritic spines were observed by staining with PSD95 antibody (yellow), and the location of mCherry-FRB-AKT2 was investigated by observing mCherry fluorescence (cherry color).
SD-rat gestational age 16-day mice (Orient Bio) were purchased and the mice were anesthetized with CO2 and then embryos were taken out. Until the forebrain was isolated and the meninges were removed, it was performed by the same method as the hippocampal culture, and when the cerebrum was isolated, the dorsal cortex or ventral cortex was cut with a bended syringe needle, and it was collected in new HBSS. The tissue isolated and collected was transferred to a 15 ml tube with a Pasteur pipette, and then in order to remove the remaining meninges and blood vessels, and the like, 2 ml HBSS and 0.25% trypsin of 2 ml were added, and it was reacted in a 37° C. shaker for 10-15 minutes. The cells were settled and the supernatant was removed leaving 1-2 ml, and then trypsin was inactivated by adding DMEM comprising the equal amount of 20% FBS. After centrifugation at 700 rpm for 15 minutes, the supernatant was discarded all and the collected tissue was released, and then Neurobasal culture medium (+glutamate) of 2 ml was added, and titrated with a pipette, and the cells were isolated by changing to a pipette with a narrow end. […] The number of cells was measured with a hemocytometer, and then the cells were seeded in a coated culture dish. […]

Pten KO mice [2] = assay: 3-chamber test in Pten KO mice; format: in vivo
Description: (§1) As Pten KO mice, Ptenf/f_cre/cre KO mice or Ptenf/f_cre/++ Het mice (KD) were obtained by mating Pten floxed/floxed mice and CAMKII-cre mice. DMSO or athyriol was intraperitoneally injected at 5 or 10 mg/kg for 2 weeks from the age of mice of 6 weeks, and a behavioral test was performed in 7 days after administration. Pten floxed/floxed mice were used as littermates of the same age as a normal control group.
3-chamber test is a test to confirm sociability, social cognition, and social sexual preference, and it was tested by composing sessions 1 and 2. The experimental site was consisted of three chambers made of transparent acrylic walls with a small door and each chamber was length 50 cm×width 100 cm×height 50 cm. Through a cylindrical cage, the sense of smell and minimal contact of the test mice to the unfamiliar mouse were allowed. Prior to the test, the test mice were placed in an intermediate chamber and adapted for 5 minutes with both doors closed. The test was performed by dividing into sessions I and II. In the 3-chamber sociability measurement-1 session, an unfamiliar mouse met first was placed in a transparent box located at one end of the three rooms, and an empty transparent box of the same size was placed in the room located at the other side, and the target mouse was placed in the middle room, and then the time searching toward the counterpart within the social interaction zone was measured.
In the 3-chamber sociability measurement-2 session, an unfamiliar met first was placed in a transparent box located at one end of the three rooms, and the mouse met in the session 1 was placed in the same transparent box in the room located at the other side. […] Therefore, it could be confirmed that the sociability disorder occurring in the Pten KO mice was improved to the normal group level by athyriol administration.

Pten KO mice [3] = assay: Elevated plus maze test in Pten KO mice; format: in vivo; conditions: Pten KO mice administered athyriol; FIG. 2
Description: as §1
In order to confirm whether emotional instability was improved, when athyriol was administered to an autism spectrum disorder animal model, Pten KO mice, an elevated plus maze test was performed. An anxiety disorder animal model behavioral test was evaluated as a tendency to avoid an open arm exposed to the elevated-plus maze and stay in a closed arm. Analysis was conducted with a video tracking system (Ethovision EPM program, Noldus information technology, Wageningen, Netherlands). In the elevated plus maze test measuring emotional instability disorder, when the emotional anxiety increases, the time spent in the closed arm increases compared to the time spent in the open arm.

Row | Compound | AKT-Ser473 phosphorylation induced by DHPG [1] | increase of time of searching the unfamiliar mouse over normal control group, session 2 (Pten KO mice [2]; 10 mg/kg, session 2) [%] | time searching the unfamiliar mouse, session 1 (Pten KO mice [2]; 3-chamber sociability measurement-1 session, FIG. 4) | time of searching the unfamiliar mouse, session 2 (Pten KO mice [2]; 5 or 10 mg/kg, 3-chamber sociability measurement-2 session) | reduction of time spent in the closed arm (Pten KO mice [3]) [%] | time in the center zone (Pten KO mice [3])
1 | O=c1c2cc(O)c(O)cc2oc2cc(O)cc(O)c12 [norathyriol, 1,3,6,7-tetrahydroxy-9H-xanthen-9-one] | measured similarly to the control group level |  |  |  |  | 
2 | COc1cc(O)c2c(=O)c3cc(O)c(O)cc3oc2c1 [athyriol, 1,6,7-Trihydroxy-3-methoxy-9H-xanthen-9-on] |  | 14 | recovered to the normal control group level in a concentration-dependent manner | increased in a dose-dependent manner | 15 | recovered to the normal control group level
